Results published in patent publication US12065442B2, “Tropomyosin receptor kinase (TRK) degradation compounds and methods of use” (Cullgen (Shanghai), Inc., priority 2018, dated 2024).
Entries after “also recorded” stand apart in the source; their conditions may differ.

These molecules were tested on KM12 cells (assay: Cell viability assay (CellTiter-Glo) in KM12 cells). Details: 500 nM, 12-point 2-fold serial dilution, 3 days (FIG. 4A).
Assay type: cell-based
For O=C1CCC(N2C(=O)c3cccc(NCCOCCOCCOCCC(=O)N4CCN(c5cccc(-c6cnc7ccc(N8CCC[C@@H]8c8cccc(F)c8)nn67)n5)CC4)c3C2=O)C(=O)N1 (stereo partly drawn) [CPD-010, 2-(2,6-Dioxopiperidin-3-yl)-4-((2-(2-(2-(3-(4-(6-(6-((R)-2-(3-fluorophenyl)pyrrolidin-1-yl)imidazo[1,2-b]pyridazin-3-yl)pyridin-2-yl)piperazin-1-yl)-3-oxopropoxy)ethoxy)ethoxy)ethyl)amino)isoindoline-1,3-dione], the “viability of KM12 cells” value was “inhibited the viability; also recorded: dose-dependently suppressed viability”.

Same assay, conditions: Homo sapiens, 72 h; Table 2; KM12 cell viability, CellTiter-Glo, 3 days; read-out: IC50
Cc1ncsc1-c1ccc(CNC(=O)[C@@H]2C[C@@H](O)CN2C(=O)[C@@H](NC(=O)CCOCCC(=O)N2CCN(c3cccc(-c4cnc5ccc(N6CCC[C@@H]6c6cccc(F)c6)nn45)n3)CC2)C(C)(C)C)cc1 [CPD-007, (2S,4R)-1-((S)-2-(3-(3-(4-(6-(6-((R)-2-(3-Fluorophenyl)pyrrolidin-1-yl)imidazo[1,2-b]pyridazin-3-yl)pyridin-2-yl)piperazin-1-yl)-3-oxopropoxy)propanamido)-3,3-dimethylbutanoyl)-4-hydroxy-N-(4-(4-methylthiazol-5-yl)benzyl)pyrrolidine-2-carboxamide] gave an IC50 greater than 1 µM. Cc1ncsc1-c1ccc(CNC(=O)[C@@H]2C[C@@H](O)CN2C(=O)[C@@H](NC(=O)COCC(=O)N2CCN(c3cccc(-c4cnc5ccc(N6CCC[C@@H]6c6cccc(F)c6)nn45)n3)CC2)C(C)(C)C)cc1 [CPD-008, (2S,4R)-1-((S)-2-(2-(2-(4-(6-(6-((R)-2-(3-Fluorophenyl)pyrrolidin-1-yl)imidazo[1,2-b]pyridazin-3-yl)pyridin-2-yl)piperazin-1-yl)-2-oxoethoxy)acetamido)-3,3-dimethylbutanoyl)-4-hydroxy-N-(4-(4-methylthiazol-5-yl)benzyl)pyrrolidine-2-carboxamide] gave an IC50 greater than 1 µM. Work on O=C1CCC(N2C(=O)c3cccc(NCCCCCCC(=O)N4CCN(c5cccc(-c6cnc7ccc(N8CCC[C@@H]8c8cccc(F)c8)nn67)n5)CC4)c3C2=O)C(=O)N1 (stereo partly drawn) [CPD-009, 2-(2,6-Dioxopiperidin-3-yl)-4-((7-(4-(6-(6-((R)-2-(3-fluorophenyl)pyrrolidin-1-yl)imidazo[1,2-b]pyridazin-3-yl)pyridin-2-yl)piperazin-1-yl)-7-oxoheptyl)amino)isoindoline-1,3-dione] yielded an IC50 of 0.035 µM. With O=C1CCC(N2C(=O)c3cccc(NCCOCCOCCOCCC(=O)N4CCN(c5cccc(-c6cnc7ccc(N8CCC[C@@H]8c8cccc(F)c8)nn67)n5)CC4)c3C2=O)C(=O)N1 (stereo partly drawn) [CPD-010, 2-(2,6-Dioxopiperidin-3-yl)-4-((2-(2-(2-(3-(4-(6-(6-((R)-2-(3-fluorophenyl)pyrrolidin-1-yl)imidazo[1,2-b]pyridazin-3-yl)pyridin-2-yl)piperazin-1-yl)-3-oxopropoxy)ethoxy)ethoxy)ethyl)amino)isoindoline-1,3-dione] the IC50 was 0.03 µM. Cc1ncsc1-c1ccc(CNC(=O)[C@@H]2C[C@@H](O)CN2C(=O)[C@@H](NC(=O)COCCOCCOCC(=O)N2CCN(c3cccc(-c4cnc5ccc(N6CCC[C@@H]6c6cccc(F)c6)nn45)n3)CC2)C(C)(C)C)cc1 [CPD-011, (2S,4R)-1-((S)-2-(tert-butyl)-14-(4-(6-(6-((R)-2-(3-Fluorophenyl)pyrrolidin-1-yl)imidazo[1,2-b]pyridazin-3-yl)pyridin-2-yl)piperazin-1-yl)-4,14-dioxo-6,9,12-trioxa-3-azatetradecanoyl)-4-hydroxy-N-(4-(4-methylthiazol-5-yl)benzyl)pyrrolidine-2-carboxamide] was tested, and the IC50 was greater than 1 µM. In the case of Cc1ncsc1-c1ccc(CNC(=O)[C@@H]2C[C@@H](O)CN2C(=O)[C@@H](NC(=O)CCCC(=O)N2CCN(c3cccc(-c4cnc5ccc(N6CCC[C@@H]6c6cccc(F)c6)nn45)n3)CC2)C(C)(C)C)cc1 [CPD-012, (2S,4R)-1-((S)-2-(5-(4-(6-(6-((R)-2-(3-Fluorophenyl)pyrrolidin-1-yl)imidazo[1,2-b]pyridazin-3-yl)pyridin-2-yl)piperazin-1-yl)-5-oxopentanamido)-3,3-dimethylbutanoyl)-4-hydroxy-N-(4-(4-methylthiazol-5-yl)benzyl)pyrrolidine-2-carboxamide], the IC50 is reported as greater than 1 µM. O=C1CCC(N2C(=O)c3cccc(NCCCC(=O)N4CCN(c5cccc(-c6cnc7ccc(N8CCC[C@@H]8c8cccc(F)c8)nn67)n5)CC4)c3C2=O)C(=O)N1 (stereo partly drawn) [CPD-013, 2-(2,6-Dioxopiperidin-3-yl)-4-((4-(4-(6-(6-((R)-2-(3-fluorophenyl)pyrrolidin-1-yl)imidazo[1,2-b]pyridazin-3-yl)pyridin-2-yl)piperazin-1-yl)-4-oxobutyl)amino)isoindoline-1,3-dione] showed an IC50 of 0.0102 µM. O=C1CCC(N2C(=O)c3cccc(NCCCCC(=O)N4CCN(c5cccc(-c6cnc7ccc(N8CCC[C@@H]8c8cccc(F)c8)nn67)n5)CC4)c3C2=O)C(=O)N1 (stereo partly drawn) [CPD-014, 2-(2,6-Dioxopiperidin-3-yl)-4-((5-(4-(6-(6-((R)-2-(3-fluorophenyl)pyrrolidin-1-yl)imidazo[1,2-b]pyridazin-3-yl)pyridin-2-yl)piperazin-1-yl)-5-oxopentyl)amino)isoindoline-1,3-dione] showed an IC50 of 0.0079 µM. O=C1CCC(N2C(=O)c3cccc(NCCCCCC(=O)N4CCN(c5cccc(-c6cnc7ccc(N8CCC[C@@H]8c8cccc(F)c8)nn67)n5)CC4)c3C2=O)C(=O)N1 (some centres unmarked) [CPD-015] gave an IC50 of 0.0149 µM. Cc1ncsc1-c1ccc(CNC(=O)[C@@H]2C[C@@H](O)CN2C(=O)[C@@H](NC(=O)CCOCCOCCOCCC(=O)N2CCN(c3cccc(-c4cnc5ccc(N6CCC[C@@H]6c6cccc(F)c6)nn45)n3)CC2)C(C)(C)C)cc1 [CPD-016, (2S,4R)-1-((S)-2-(tert-butyl)-16-(4-(6-(6-((R)-2-(3-Fluorophenyl)pyrrolidin-1-yl)imidazo[1,2-b]pyridazin-3-yl)pyridin-2-yl)piperazin-1-yl)-4,16-dioxo-7,10,13-trioxa-3-azahexadecanoyl)-4-hydroxy-N-(4-(4-methylthiazol-5-yl)benzyl)pyrrolidine-2-carboxamide] showed an IC50 of 0.15 µM. Cc1ncsc1-c1ccc(CNC(=O)[C@@H]2C[C@@H](O)CN2C(=O)[C@@H](NC(=O)CCCCCCCCC(=O)N2CCN(c3cccc(-c4cnc5ccc(N6CCC[C@@H]6c6cccc(F)c6)nn45)n3)CC2)C(C)(C)C)cc1 [CPD-017, (2S,4R)-1-((S)-2-(10-(4-(6-(6-((R)-2-(3-Fluorophenyl)pyrrolidin-1-yl)imidazo[1,2-b]pyridazin-3-yl)pyridin-2-yl)piperazin-1-yl)-10-oxodecanamido)-3,3-dimethylbutanoyl)-4-hydroxy-N-(4-(4-methylthiazol-5-yl)benzyl)pyrrolidine-2-carboxamide] gave an IC50 of 0.145 µM. Cc1ncsc1-c1ccc(CNC(=O)[C@@H]2C[C@@H](O)CN2C(=O)[C@@H](NC(=O)CCCCCCCC(=O)N2CCN(c3cccc(-c4cnc5ccc(N6CCC[C@@H]6c6cccc(F)c6)nn45)n3)CC2)C(C)(C)C)cc1 [CPD-018, (2S,4R)-1-((S)-2-(9-(4-(6-(6-((R)-2-(3-Fluorophenyl)pyrrolidin-1-yl)imidazo[1,2-b]pyridazin-3-yl)pyridin-2-yl)piperazin-1-yl)-9-oxononanamido)-3,3-dimethylbutanoyl)-4-hydroxy-N-(4-(4-methylthiazol-5-yl)benzyl)pyrrolidine-2-carboxamide] gave an IC50 of 0.258 µM. With Cc1ncsc1-c1ccc(CNC(=O)[C@@H]2C[C@@H](O)CN2C(=O)[C@@H](NC(=O)CCOCCOCCOCCOCCC(=O)N2CCN(c3cccc(-c4cnc5ccc(N6CCC[C@@H]6c6cccc(F)c6)nn45)n3)CC2)C(C)(C)C)cc1 [CPD-019, (2S,4R)-1-((S)-2-(tert-butyl)-19-(4-(6-(6-((R)-2-(3-Fluorophenyl)pyrrolidin-1-yl)imidazo[1,2-b]pyridazin-3-yl)pyridin-2-yl)piperazin-1-yl)-4,19-dioxo-7,10,13,16-tetraoxa-3-azanonadecanoyl)-4-hydroxy-N-(4-(4-methylthiazol-5-yl)benzyl)pyrrolidine-2-carboxamide] the IC50 was 0.5 µM.
